Source: US6391921B1 (priority 2000, dated 2002)

What was measured:
RBL-2H3 mast cells [1] = experiment: IgE receptor/FcεRI-mediated mast cell LTC4 release; assay type: cell-based, rat; conditions: 1 hour prior to DNP-BSA challenge; FIG. 3B
Protocol: Monolayers of RBL-2H3 rat mast cells were sensitized with monoclonal anti-DNP IgE antibody (0.24 mg/ml) for 1 hour at 37° C. in a 48-well tissue culture plate. Unbound IgE was removed by washing the cells with phosphate buffered saline. After washing, PIPES-buffered saline containing 1 mM calcium chloride was added to the monolayers of the RBL-2H3 cells. The cells were challenged with 20 ng/ml DNP-BSA for 30 minutes at 37° C. The plate was centrifuged at 200 g for 10 minutes at 4° C. and supernatants were saved. […]
(§1) To study the effects of compound D-58, RBL-2H3 cells were incubated with compound D-58 at the indicated concentrations or vehicle for 1 hour prior to antigen challenge. Mast cell degranulation (β-hexosaminidase release, % of total) was assessed by measuring the β-hexosaminidase levels in cell free supernatants and Triton X-100 solubilized pellets using the formula: β-hexosaminidase release, % of total=100×(β-hexosaminidase level in supernatant/β-hexosaminidase level in supernatant+solubilized pellet). […]
In order to examine the effects of compound D-58 on IgE receptor/FcεRI-mediated mast cell activation and mediator release, RBL-2H3 mast cells were exposed to increasing concentrations of this ethanone or vehicle prior to challenge with antigen (DNP-BSA). […] Mast cell β-hexosaminidase release (FIG. 3A) and LTC4 release (FIG. 3B) were measured. […]

RBL-2H3 mast cells [2] = experiment: IgE/antigen induced calcium mobilization in mast cells (fluo-3 imaging); assay type: cell-based, rat; conditions: 30 μM, 20 minutes prior to stimulation with 20 ng/ml DNP-BSA; FIG. 2A
Protocol: as §1, with “pellet). LTC4 levels in cell free supernatants of mast cells were estimated using standard procedures (ref 24).” for “pellet).”
The results are shown in FIGS. 2A-B. IgE/antigen stimulation of RBL-2H3 mast cells activates a cascade of signal transduction events, which includes tyrosine phosphorylation of several proteins and SYK/BTK-mediated activation of phospholipase C, which generates second messengers inositol 1,4,5-triphosphate (IP3) and 1,2-diacylglycerol (DAG) (ref 7). […] IgE sensitized and Ca^2+ indicator fluo-3/AM loaded RBL-2H3 cells were stimulated with 20 ng/ml antigen (DNP-BSA) in presence of 1 mM calcium chloride and the fluorescence intensity, reflecting the calcium ion concentration was measured. […]
The fluorescent Ca^2+ indicator, fluo-3/AM (Molecular Probes) was used to detect Ca^2+ mobilizations in individual cells (ref 25). […] The background fluorescence was subtracted from each image.

Compound: COc1ccc(CC(=O)c2c(O)cc(O)cc2O)cc1 [Compound D-58]
- IgE/antigen induced LTC4 release (RBL-2H3 mast cells [1]): inhibited
- IgE/antigen induced calcium response (RBL-2H3 mast cells [2]): abrogation of calcium mobilization
